Laboratory results from patent US20240158348A1, “HERBICIDAL CYCLIC AMIDES N-SUBSTITUTED WITH A HALOALKYLSULFONYLANILIDE GROUP” (FMC Corporation, priority 2021, published 2024).

Key:
Assay type in all cases: in vivo
[1] = system: kochia (Bassia scoparia); assay: Test C postemergence, kochia; conditions: for Kochia plant response rating: 31 g ai/ha Postemergence, visual injury, 0 to 100 scale (0 no effect, 100 complete control); for Plant response rating (0 to 100 scale), Kochia: 125 g ai/ha Postemergence, 0 is no effect, 100 is complete control
How it was run: (§1)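 Ratings run from 0, meaning no effect, up to 100, meaning complete control, judged by eye against untreated plants. Treatment was a directed soil spray before emergence or a postemergence spray on 2–10 cm seedlings, with evaluation 10 or 12 days later.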

[2] = system: pigweed, palmer (palmer amaranth, Amaranthus palmeri); assay: Test C postemergence, palmer amaranth; conditions: for Pigweed, Palmer plant response rating: visual injury, 0 to 100 scale (0 no effect, 100 complete control); for Plant response rating (0 to 100 scale), Pigweed, Palmer: 0 is no effect, 100 is complete control
How it was run: as §1

[3] = system: goosegrass (Eleusine indica); assay: Test C postemergence, goosegrass; conditions: for Goosegrass plant response rating: 31 g ai/ha Postemergence, visual injury, 0 to 100 scale (0 no effect, 100 complete control); for Plant response rating (0 to 100 scale), Goosegrass: 125 g ai/ha Postemergence, 0 is no effect, 100 is complete control
How it was run: as §1

[4] = system: goosegrass (Eleusine indica); assay: Test C preemergence, goosegrass; conditions: 0 is no effect, 100 is complete control
How it was run: as §1

[5] = system: wheat (Triticum aestivum); assay: Test C preemergence, wheat; conditions: 0 is no effect, 100 is complete control
[6] = system: oat, wild (wild oat, Avena fatua); assay: Test C preemergence, wild oat; conditions: 0 is no effect, 100 is complete control
How it was run: as §1

[7] = system: foxtail, giant (giant foxtail, Setaria faberi); assay: Test C postemergence, giant foxtail; conditions: for Foxtail, Giant plant response rating: 31 g ai/ha Postemergence, visual injury, 0 to 100 scale (0 no effect, 100 complete control); for Plant response rating (0 to 100 scale), Foxtail, Giant: 125 g ai/ha Postemergence, 0 is no effect, 100 is complete control

| SMILES | Kochia plant response rating [1] | Plant response rating (0 to 100 scale), Kochia [1] | Pigweed, Palmer plant response rating ([2]; 31 g ai/ha Postemergence) | Pigweed, Palmer plant response rating ([2]; 125 g ai/ha Postemergence) | Goosegrass plant response rating [3] | Plant response rating (0 to 100 scale), Goosegrass [3] | Plant response rating (0 to 100 scale), Goosegrass ([4]; 31 g ai/ha Preemergence) | Plant response rating (0 to 100 scale), Goosegrass ([4]; 125 g ai/ha Preemergence) | Plant response rating (0 to 100 scale), Wheat ([5]; 31 g ai/ha Preemergence) | Plant response rating (0 to 100 scale), Wheat ([5]; 125 g ai/ha Preemergence) | Plant response rating (0 to 100 scale), Oat, Wild ([6]; 31 g ai/ha Preemergence) | Plant response rating (0 to 100 scale), Oat, Wild ([6]; 125 g ai/ha Preemergence) | Foxtail, Giant plant response rating [7] | Plant response rating (0 to 100 scale), Foxtail, Giant [7] | Plant response rating (0 to 100 scale), Pigweed, Palmer ([2]; 125 g ai/ha Postemergence) |
| --- | --- | --- | --- | --- | --- | --- | --- | --- | --- | --- | --- | --- | --- | --- | --- |
| Cc1cc(C)c(N2CCC(OC3CC3)C2=O)cc1NS(=O)(=O)C(F)(F)F (single isomer, unassigned) [Compound 30] | 80 | 90 | 60 | 90 | 80 | 90 | 90 | 100 | 90 | 100 | 80 | 100 | 50 | 80 |  |
| CO/N=C1\CCN(c2cc(NS(=O)(=O)C(F)(F)F)c(C)cc2C)C1=O [Compound 9, 1,1,1-trifluoro-N-[5-[3-(methoxyimino)-2-oxo-1-pyrrolidinyl]-2,4-dimethylphenyl]methanesulfonamide] | 80 | 90 | 70 |  | 90 | 90 | 100 | 100 | 90 | 100 | 90 | 100 | 40 | 90 | 90 |
| Cc1cc(C)c(N2CC/C(=N\O)C2=O)cc1NS(=O)(=O)C(F)(F)F [Compound 10, 1,1,1-trifluoro-N-[5-[3-(hydroxyimino)-2-oxo-1-pyrrolidinyl]-2,4-dimethylphenyl]methanesulfonamide] | 60 | 90 | 60 |  | 90 | 90 | 80 | 100 | 90 | 100 | 90 | 100 | 40 | 90 | 90 |
| C=CCO/N=C1\CCN(c2cc(NS(=O)(=O)C(F)(F)F)c(C)cc2C)C1=O [Compound 11] | 40 | 90 | 40 |  | 90 | 100 | 100 | 100 | 90 | 100 | 30 | 100 | 60 | 90 | 90 |
| CCO/N=C1\CCN(c2cc(NS(=O)(=O)C(F)(F)F)c(C)cc2C)C1=O [Compound 12, N-[5-[3-(ethoxyimino)-2-oxo-1-pyrrolidinyl]-2,4-dimethylphenyl]-1,1,1-trifluoromethanesulfonamide] | 90 | 90 | 80 |  | 100 | 100 | 90 | 100 | 90 | 100 | 90 | 100 | 90 | 90 | 100 |
| C#CCO/N=C1\CCN(c2cc(NS(=O)(=O)C(F)(F)F)c(C)cc2C)C1=O [Compound 13, N-[2,4-dimethyl-5-[2-oxo-3-[(2-propyn-1-yloxy)imino]-1-pyrrolidinyl]phenyl]-1,1,1-trifluoromethanesulfonamide] | 90 | 90 | 80 |  | 70 | 100 | 90 | 100 | 90 | 100 | 100 | 100 | 60 | 90 | 90 |
| Cc1cc(C)c(N2CCC(O)C2=O)cc1NS(=O)(=O)C(F)(F)F (stereo not shown) [Compound 14] | 50 | 70 | 40 |  | 60 | 90 | 90 | 100 | 50 | 100 | 10 | 60 | 20 | 90 | 90 |
| COC(=O)N(c1cc(N2CCC(OC3CC3)C2=O)c(C)cc1C)S(=O)(=O)C(F)(F)F (stereo not shown) [Compound 16] | 20 | 10 | 0 |  | 0 | 0 | 0 | 0 | 0 | 0 | 0 | 0 | 0 | 0 | 0 |
